Assay results taken from US9833497B2, “Human originated EGF domain proteins and use of the same” (CHENGDU SOURCEBIO LIMITED-LIABILITY COMPANY, priority 2013, dated 2017).

Tests used:
Assay type in all cases: cell-based
[1] = system: E. coli BL21; assay: MIC against Gram-negative bacteria: E. coli BL21; conditions: 5×10^5 CFU/mL
Method in brief: (§1)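 Inocula prepared by growing LB cultures at 37° C to 0.5 McFarland, centrifuging at 4000×g, and resuspending in fresh medium. Final density 5×10^5 CFU/mL per well with two-fold dilutions of purified EGF domain protein; shaking incubation at 37° C.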

[2] = system: Pseudomonas aeruginosa; assay: MIC against Gram-negative bacteria: Pseudomonas aeruginosa; conditions: 5×10^5 CFU/mL; for MIC against P. aeruginosa: Pseudomonas aeruginosa
Method in brief: as §1

[3] = system: Klebsiella pneumonia; assay: MIC against Gram-negative bacteria: Klebsiella pneumonia; conditions: 5×10^5 CFU/mL; for MIC against K. pneumonia: Klebsiella pneumonia
Method in brief: as §1

[4] = system: E. coli DH5α; assay: Antibacterial activity: MIC and growth curve against E. coli DH5α in 96-well plate; conditions: minimal inhibitory concentration against E. coli DH5α; 96-well plate, 5×10^5 CFU/mL, 37° C., judged after 8 h
Method in brief: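 Log-phase bacteria (OD600 ~0.5) resuspended in LB at 5×10^5 CFU/mL, exposed to recombinant protein at 50, 25, 12.5 μg/mL final in triplicate, 37 °C shaking at 175 rpm. OD600 read every 30 min; MIC is lowest concentration showing no growth.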

[5] = system: Serratia marcescens; assay: MIC against Gram-negative bacteria: Serratia marcescens; conditions: 5×10^5 CFU/mL; for MIC against S. marcescens: Serratia marcescens
Method in brief: as §1

[6] = system: Citrobacter diversus; assay: MIC against Gram-negative bacteria: Citrobacter diversus; conditions: 5×10^5 CFU/mL; for MIC against C. diversus: Citrobacter diversus
Method in brief: as §1

[7] = system: Moraxella catarrhalis; assay: MIC against Gram-negative bacteria: Moraxella catarrhalis; conditions: 5×10^5 CFU/mL; for MIC against M. catarrhalis: Moraxella catarrhalis
Method in brief: as §1

[8] = system: Enterobacter cloacae; assay: MIC against Gram-negative bacteria: Enterobacter cloacae; conditions: 5×10^5 CFU/mL; for MIC against E. cloacae: Enterobacter cloacae
Method in brief: as §1

[9] = system: Aeromonas hydrophila; assay: MIC against Gram-negative bacteria: Aeromonas hydrophila; conditions: 5×10^5 CFU/mL; for MIC against A. hydrophila: Aeromonas hydrophila
Method in brief: as §1

[10] = system: Proteus mirabilis; assay: MIC against Gram-negative bacteria: Proteus mirabilis; conditions: 5×10^5 CFU/mL; for MIC against P. mirabilis: Proteus mirabilis
Method in brief: as §1

[11] = system: Proteus vulgaris; assay: MIC against Gram-negative bacteria: Proteus vulgaris; conditions: 5×10^5 CFU/mL; for MIC against P. vulgaris: Proteus vulgaris
Method in brief: as §1

[12] = 10 h cultivation at 37° C., two-fold serial dilution

**Q.** Which “MIC (μg/mL) E. coli BL21” value ([1]; 10 h cultivation at 37° C.) does the source give for “PRT192 (CPGSGERRICSHHGVCSNEGKCICQPDWTGKDC; listed as Homo sapiens)” here?
**A.** 50 µg/mL

**Q.** And the “MIC (μg/mL) P. aeruginosa” value ([2]; 10 h cultivation at 37° C.)?
**A.** 25 µg/mL

**Q.** What about the “MIC (μg/mL) K. pneumonia” value ([3]; 10 h cultivation at 37° C.) of the same substance?
**A.** 12.5 µg/mL

**Q.** What about the MIC [4] of the same substance?
**A.** 25 µg/mL

**Q.** And the “MIC (μg/mL) S. marcescens” value ([5]; 10 h cultivation at 37° C.)?
**A.** 12.5 µg/mL

**Q.** And the “MIC (μg/mL) C. diversus” value ([6]; 10 h cultivation at 37° C.)?
**A.** 25 µg/mL

**Q.** And the “MIC (μg/mL) M. catarrhalis” value ([7]; 10 h cultivation at 37° C.)?
**A.** 12.5 µg/mL

**Q.** And the “MIC (μg/mL) E. cloacae” value ([8]; 10 h cultivation at 37° C.)?
**A.** 25 µg/mL

**Q.** What about the “MIC (μg/mL) A. hydrophila” value ([9]; 10 h cultivation at 37° C.) of the same substance?
**A.** 50 µg/mL

**Q.** And the “MIC (μg/mL) P. mirabilis” value ([10]; 10 h cultivation at 37° C.)?
**A.** 25 µg/mL

**Q.** And the “MIC (μg/mL) P. vulgaris” value ([11]; 10 h cultivation at 37° C.)?
**A.** 50 µg/mL

**Q.** With “PRT162 (LIDFCALSPCAHGTCRSVGTSYKCLCDPGYHGLYCE; listed as Homo sapiens)” as the substance, how does the “MIC (μg/mL) E. coli BL21” value ([1]; 10 h cultivation at 37° C.) read?
**A.** 25 µg/mL

**Q.** What about the “MIC (μg/mL) P. aeruginosa” value ([2]; 10 h cultivation at 37° C.) of the same substance?
**A.** 12.5 µg/mL

**Q.** What about the “MIC (μg/mL) K. pneumonia” value ([3]; 10 h cultivation at 37° C.) of the same substance?
**A.** 25 µg/mL

**Q.** What about the MIC [4] of the same substance?
**A.** 12.5 µg/mL

**Q.** What about the “MIC (μg/mL) S. marcescens” value ([5]; 10 h cultivation at 37° C.) of the same substance?
**A.** 25 µg/mL

**Q.** What about the “MIC (μg/mL) C. diversus” value ([6]; 10 h cultivation at 37° C.) of the same substance?
**A.** 12.5 µg/mL

**Q.** What about the “MIC (μg/mL) M. catarrhalis” value ([7]; 10 h cultivation at 37° C.) of the same substance?
**A.** 12.5 µg/mL

**Q.** And the “MIC (μg/mL) E. cloacae” value ([8]; 10 h cultivation at 37° C.)?
**A.** 12.5 µg/mL

**Q.** What about the “MIC (μg/mL) A. hydrophila” value ([9]; 10 h cultivation at 37° C.) of the same substance?
**A.** 25 µg/mL

**Q.** What about the “MIC (μg/mL) P. mirabilis” value ([10]; 10 h cultivation at 37° C.) of the same substance?
**A.** 100 µg/mL

**Q.** What about the “MIC (μg/mL) P. vulgaris” value ([11]; 10 h cultivation at 37° C.) of the same substance?
**A.** 12.5 µg/mL

**Q.** What does the source list for “PRT715 (DIDECSSGFPCSQQCINTYGTYKCLCTDGYEIQPDNPNGCK; listed as Homo sapiens)”?
**A.** MIC E. coli BL21 ([1]; 96-well plate, 37° C., 10 h): 50 µg/mL; MIC P. aeruginosa ([2]; 96-well plate, 37° C., 10 h): 25 µg/mL; MIC K. pneumonia ([3]; 96-well plate, 37° C., 10 h): 12.5 µg/mL; MIC [4]: 50 µg/mL; MIC S. marcescens ([5]; 96-well plate, 37° C., 10 h): 12.5 µg/mL; MIC C. diversus ([6]; 96-well plate, 37° C., 10 h): 50 µg/mL; MIC M. catarrhalis ([7]; 96-well plate, 37° C., 10 h): 12.5 µg/mL; MIC E. cloacae ([8]; 96-well plate, 37° C., 10 h): 50 µg/mL; MIC A. hydrophila ([9]; 96-well plate, 37° C., 10 h): 12.5 µg/mL; MIC P. mirabilis ([10]; 96-well plate, 37° C., 10 h): 25 µg/mL; MIC P. vulgaris ([11]; 96-well plate, 37° C., 10 h): 50 µg/mL

**Q.** How did the “MIC E. coli BL21” value [1, 12] turn out when “PRT1094 (GDNSCKSNPCHNGGVCHSRWDDFSCSCPALTSGKACE; listed as Homo sapiens)” was run?
**A.** 50 µg/mL

**Q.** And the “MIC P. aeruginosa” value [2, 12]?
**A.** 25 µg/mL

**Q.** And the “MIC K. pneumonia” value [3, 12]?
**A.** 12.5 µg/mL

**Q.** What about the MIC [4] of the same substance?
**A.** 25 µg/mL

**Q.** And the “MIC S. marcescens” value [5, 12]?
**A.** 12.5 µg/mL

**Q.** What about the “MIC C. diversus” value [6, 12] of the same substance?
**A.** 12.5 µg/mL

**Q.** What about the “MIC M. catarrhalis” value [7, 12] of the same substance?
**A.** 50 µg/mL

**Q.** And the “MIC E. cloacae” value [8, 12]?
**A.** 25 µg/mL

**Q.** What about the “MIC A. hydrophila” value [9, 12] of the same substance?
**A.** 50 µg/mL

**Q.** And the “MIC P. mirabilis” value [10, 12]?
**A.** 12.5 µg/mL

**Q.** And the “MIC P. vulgaris” value [11, 12]?
**A.** 50 µg/mL

**Q.** “PRT1463 (CDCDTAGSLPGTVCNAKTGQCICKPNVEGRQCNKCLEGNFYLRQNNSFLCLP; listed as Homo sapiens)” was tested. Which “MIC against E. coli BL21” value ([1]; 10 h cultivation at 37° C.) did it give?
**A.** 25 µg/mL

**Q.** And the “MIC against P. aeruginosa” value ([2]; 10 h cultivation at 37° C.)?
**A.** 12.5 µg/mL

**Q.** And the “MIC against K. pneumonia” value ([3]; 10 h cultivation at 37° C.)?
**A.** 25 µg/mL

**Q.** And the MIC [4]?
**A.** 50 µg/mL

**Q.** And the “MIC against S. marcescens” value ([5]; 10 h cultivation at 37° C.)?
**A.** 12.5 µg/mL

**Q.** And the “MIC against C. diversus” value ([6]; 10 h cultivation at 37° C.)?
**A.** 50 µg/mL

**Q.** What about the “MIC against M. catarrhalis” value ([7]; 10 h cultivation at 37° C.) of the same substance?
**A.** 25 µg/mL

**Q.** What about the “MIC against E. cloacae” value ([8]; 10 h cultivation at 37° C.) of the same substance?
**A.** 50 µg/mL

**Q.** And the “MIC against A. hydrophila” value ([9]; 10 h cultivation at 37° C.)?
**A.** 12.5 µg/mL

**Q.** And the “MIC against P. mirabilis” value ([10]; 10 h cultivation at 37° C.)?
**A.** 12.5 µg/mL

**Q.** And the “MIC against P. vulgaris” value ([11]; 10 h cultivation at 37° C.)?
**A.** 25 µg/mL

**Q.** Which “MIC against E. coli BL21” value ([1]; 96-well plate, 37° C., 10 h) does the source give for “PRT1224 (PPGDCASHPCQNGGSCEPGLHSGFTCSCPDSHTGRTCE; listed as Homo sapiens)” here?
**A.** 50 µg/mL

**Q.** What about the “MIC against P. aeruginosa” value ([2]; 96-well plate, 37° C., 10 h) of the same substance?
**A.** 25 µg/mL

**Q.** What about the “MIC against K. pneumonia” value ([3]; 96-well plate, 37° C., 10 h) of the same substance?
**A.** 12.5 µg/mL

**Q.** And the MIC [4]?
**A.** 25 µg/mL

**Q.** And the “MIC against S. marcescens” value ([5]; 96-well plate, 37° C., 10 h)?
**A.** 50 µg/mL

**Q.** And the “MIC against C. diversus” value ([6]; 96-well plate, 37° C., 10 h)?
**A.** 12.5 µg/mL

**Q.** And the “MIC against M. catarrhalis” value ([7]; 96-well plate, 37° C., 10 h)?
**A.** 25 µg/mL

**Q.** And the “MIC against E. cloacae” value ([8]; 96-well plate, 37° C., 10 h)?
**A.** 25 µg/mL

**Q.** What about the “MIC against A. hydrophila” value ([9]; 96-well plate, 37° C., 10 h) of the same substance?
**A.** 50 µg/mL

**Q.** What about the “MIC against P. mirabilis” value ([10]; 96-well plate, 37° C., 10 h) of the same substance?
**A.** 50 µg/mL

**Q.** What about the “MIC against P. vulgaris” value ([11]; 96-well plate, 37° C., 10 h) of the same substance?
**A.** 12.5 µg/mL

**Q.** Which results are given for “PRT886 (RGPRCSQPGETCLNGGKCEAANGTEACVCGGAFVGPRCQ; listed as Homo sapiens)”?
**A.** MIC (μg/mL) E. coli BL21 ([1]; 10 h cultivation at 37° C.): 12.5 µg/mL; MIC (μg/mL) P. aeruginosa ([2]; 10 h cultivation at 37° C.): 25 µg/mL; MIC (μg/mL) K. pneumonia ([3]; 10 h cultivation at 37° C.): 12.5 µg/mL; MIC [4]: 25 µg/mL; MIC (μg/mL) S. marcescens ([5]; 10 h cultivation at 37° C.): 25 µg/mL; MIC (μg/mL) C. diversus ([6]; 10 h cultivation at 37° C.): 25 µg/mL; MIC (μg/mL) M. catarrhalis ([7]; 10 h cultivation at 37° C.): 12.5 µg/mL; MIC (μg/mL) E. cloacae ([8]; 10 h cultivation at 37° C.): 25 µg/mL; MIC (μg/mL) A. hydrophila ([9]; 10 h cultivation at 37° C.): 12.5 µg/mL; MIC (μg/mL) P. mirabilis ([10]; 10 h cultivation at 37° C.): 25 µg/mL; MIC (μg/mL) P. vulgaris ([11]; 10 h cultivation at 37° C.): 12.5 µg/mL
